“Also recorded” adds a separate entry of the source.
Experiments:
[1] = test system: HIV-Bal; assay: HIV transcription (Rev, Gag and Env transcripts in infected PBMCs); assay type: cell-based, HIV-1; details: 72 h post-infection; in comparison with vehicle (DMSO)
Procedure: HIV transcription. […] Stimulated PBMCs are infected with HIV-Bal (2 ng/mL per 10^6 cells) for 4-6 h. PBMCs are then treated with compounds at desired concentrations and AZT (control) for 72 h post-infection. The cells are then washed three times with media and genomic RNA is prepared from samples using RNEasy MiniKit (Qiagen). Real time RT-PCR is performed to detect mature viral early (Rev) and late transcripts (Gag and Env). The following primers are used to amplify HIV transcripts: Rev, Forward 5′-[…] (SEQ ID NO: 7) and Reverse 5′-[…] (SEQ ID NO: 8); Env, Forward 5′-[…] (SEQ ID NO: 9) and Reverse 5′-[…] (SEQ ID NO: 10); Gag, Forward 5′-[…] (SEQ ID NO: 11) and Reverse 5′-[…] (SEQ ID NO: 12); GAPDH, Forward 5′-[…] (SEQ ID NO: 3) and Reverse 5′-[…] (SEQ ID NO: 4). GADPH is used as endogenous control.

[2] = test system: JFH-1 HCV; details: viral titer at 5 μM or 15 μM compared to untreated control
Description: In vitro assay for anti-HCV efficacy. HCV studies typically involve infected patients and chimpanzees. However, recently, a robust HCV infection system was developed with cells derived from the Huh-7 human hepatoma cell line. It is based on the unique JFH-1 HCV consensus cDNA derived from an HCV patient. Using reverse genetics, the infectious virus can be rescued from this HCV clone. The recovered viable JFH virus can be passaged serially in Huh-7 cells. For this reason, this system is amenable for evaluating the activity of test compound for their anti-HCV efficacy.
Briefly, 6×10^3 Huh7-1 cells are incubated overnight in each well of collagen-coated BioCoat 96-well plates (BD Biosciences, Bedford, Mass.) in 0.2 ml 10% medium composed of Dulbecco's modified Eagle's medium supplemented with 10% fetal bovine serum. Subsequently, at 2 day intervals, the cultures are replenished with fresh 0.2 ml 10% medium. After the cultures become confluent, they continue to be replenished at 2 day intervals with fresh 0.2 ml 10% medium that also includes 1% dimethyl sulfoxide (DMSO). After 20 days of these replenishments, the Huh7-1 cultures are incubated with fresh 1% medium (same as 10% medium except that the serum level is 1%) containing HCV at a multiplicity of infection (MOI) of 0.05 focus forming units (ffu)/cell. The HCV (JFH-lwt Huh7) stock titer is 1.5×10^5 ffu/mL. The next day (day 1 post-infection) and 2 days later (day 3 post-infection) the media are replenished with fresh 1% medium containing the test compounds dissolved in DMSO. On the 5th day of treatment with the compounds, cell lysates are collected for RNA isolation and Real Time-quantitative Reverse Transcription Polymerase Chain Reaction (RT-qPCR) and culture media are collected for cytotoxicity analysis.
Total RNA is isolated from cells by the guanidine thiocyanate method using standard protocols. One μg RNA is used for cDNA synthesis using TaqMan reverse transcription reagents (Applied Biosystems, Foster City, Calif.) followed by real-time PCR using an Applied Biosystems 7300 real-time thermocycler. Thermal cycling consists of initial denaturation of 10 min at 95° C. followed by 40 cycles of denaturation (15 s at 95° C.) and annealing/extension (1 m at 60° C.). HCV and human glyceraldehyde-3-phosphate dehydrogenase (GAPDH) RNA levels are determined relative to a standard curve of serial dilutions of plasmid containing JFH-1 HCV or GAPDH cDNA. The PCR primers used to detect GAPDH and HCV are: GAPDH (NMX002046) 5′-[…]-3′(SEQ ID NO: 16) (sense) and 5′-[…]-3′(SEQ ID NO: 17) (anti-sense) JFH-1 HCV (AB047639) 5′-[…]-3′(SEQ ID NO: 18) (sense) and 5′-[…]-3′(SEQ ID NO: 19) (anti-sense).

[3] = test system: HIV-Bal; assay: HIV reverse transcription assay (2LTR circles in infected PBMCs); assay type: cell-based, HIV-1; details: 72 h post-infection; in comparison with vehicle (DMSO)
Procedure: HIV reverse transcription assay. Compounds described herein inhibit 2LTR circles. Stimulated PBMCs are infected with HIV-Bal (2 ng/mL per 10^6 cells) for 5 h. PBMCs are then treated with compounds at desired concentrations and AZT (control) for 72 h post-infection. The cells are then washed three times with media and genomic DNA is prepared from samples using DNeasy Blood and Tissue Kit (Qiagen). For real time PCR analysis, the following primers are used to amplify 2LTR circles (by-products of reverse transcription): Forward 5′-[…] (SEQ ID NO: 5) and Reverse 5′-[…] (SEQ ID NO: 6). […] All results represent two or three independent experiments each performed in quadruplicates; *=p<0.05, **=p<0.01, ***=p<0.001 in comparison with vehicle ([…]).

[4] = test system: Bovine Viral Diarrhea Virus strain NADL; assay: Anti-BVDV efficacy, cytopathic (CPE) assay in Bovine Turbinate cells (MTT); assay type: cell-based; details: cell survival at 10 μM compared to untreated control; TABLE 4(a)
Procedure: Assay for Anti-BVDV efficacy. Bovine Turbinate (BT) cells maintained as monolayers in disposable cell culture labware are used for the antiviral efficacy test. Prior to testing, host cell cultures are seeded onto the 96-well cell culture plates and used approximately 48 hours after seeding. […] The growth medium (GM) and maintenance medium (MM) include Dulbecco's Modified Eagle Media (DMEM) with L-glutamine (ATCC #30-2002), 10% Horse serum and penicillin/streptomycin (10,000 units of penicillin and 10,000 μg of streptomycin per mL, Life Technologies #15140-122 or similar) for a final concentration of 100 units penicillin and 100 μg streptomycin in the medium. Bovine Viral Diarrhea Virus strain NADL from BSLI high-titer virus stock is used. Prior to use, aliquots of the stock virus are removed and thawed from a −70° C. freezer. The BVDV is diluted in a maintenance medium (MM) to obtain 0.1 Multiplicity of Infection (MOI). Cytopathic (CPE) assay. CPE refers to degenerative changes in BT tissue culture induced by BVDV as a consequence of its multiplication. BT cell cultures are washed with PBS, and 100 μL aliquots of MM are added to the cells and incubated in a CO2 incubator for 2 hours. After incubation, the MM is removed; the cells washed again with PBS and overlaid with 100 μL of the different concentrations of test compounds. The plates are incubated in a CO2 incubator for 48 to 72 hours. […] This assay is a colorimetric assay that measures the activity of enzymes that reduce MTT to the purple color formazan dye. CPE is confirmed using an Inverted Compound Microscope.

[5] = test system: HIV-Bal; assay: HIV entry (real time RT-PCR of HIV LTR in pre-treated PBMCs); assay type: cell-based, HIV-1; details: 10 μM or 25 μM; PBMCs pre-treated 1 h and 4 h
Description: The following primers are used to amplify HIV transcripts: HIV LTR, Forward 5′-[…] (SEQ ID NO: 1) and Reverse 5′-[…] (SEQ ID NO: 2) and GAPDH—Forward 5′-[…] (SEQ ID NO: 3) and Reverse 5′-[…] (SEQ ID NO: 4). GADPH is used as endogenous control.

[6] = test system: HIV-Bal; assay: HIV genomic DNA integration (ALU-PCR in infected PBMCs); assay type: cell-based, HIV-1; details: 72 h post-infection; in comparison with vehicle (DMSO)
Procedure: HIV Genomic DNA Integration. […] Stimulated PBMCs are infected with HIV-Bal (2 ng/mL per 10^6 cells) for 5 h. The PBMCs are then treated with compounds at desired concentrations and AZT (control) for 72 h post-infection. The cells are then washed three times with media. Genomic DNA is prepared from samples using DNeasy Blood and Tissue Kit (Qiagen). ALU-PCR is performed followed by real time PCR to quantify integrated viral genome. The following primers are used to amplify HIV transcripts: HIV LTR, Forward 5′-[…] (SEQ ID NO: 1) and Reverse 5′-[…] (SEQ ID NO: 2) and GAPDH—Forward 5′-[…] (SEQ ID NO: 3) and Reverse 5′-[…] (SEQ ID NO: 4). GADPH is used as endogenous control.

In the case of `CC#CC(=O)N1CCC(C(=O)Nc2cccc(-c3cc4ccccc4[nH]3)c2)CC1` [Example 57], the “inhibition of HIV transcription (Rev, Gag, Env)” value [1] is reported as “significantly inhibits viral transcription at each concentration; also recorded: significantly inhibits HIV transcription”, the “HCV Antiviral Activity” value [2] is reported as “++ (“++” corresponds to ≦60% viral titer at 5 μM)” and the “inhibition of HIV reverse transcription (2LTR circles)” value [3] is reported as “significantly inhibits HIV reverse transcription”. For the same compound, the “BVDV Antiviral Activity” value [4] was “+++ (“+++” corresponds to ≧75 cell survival at 10 μM)”, the “effect on HIV entry” value [5] was “did not have an effect on HIV entry” and the “inhibition of HIV viral integration” value [6] was “significantly inhibits viral integration at each concentration; also recorded: significantly inhibits HIV viral integration”.
